From BigSolDB 2.1

CCc1nc(N)nc(N)c1-c1ccc(Cl)cc1
solubility (mole fraction)
Conditions	278.15 K	283.15 K	288.15 K	293.15 K	298.15 K	303.15 K	308.15 K	313.15 K	318.15 K
in acetone	0.0011	0.00125	0.00147	0.00171	0.0019	0.00215	0.00241	0.00272	0.0033
in acetonitrile	9.12e-05	0.000108	0.000148	0.000198	0.00027	0.000383	0.000469	0.000596	0.000765
in ethanol	0.000603	0.000809	0.000972	0.00109	0.00123	0.00147	0.00181	0.0022	0.00254
in ethyl acetate	0.00141	0.00151	0.0017	0.00194	0.00218	0.00246	0.0029	0.00334	0.00389
in isobutanol	0.000678	0.000904	0.0011	0.00125	0.0014	0.00167	0.00198	0.00238	0.00274
in isopropanol	0.000234	0.000323	0.000456	0.00057	0.000709	0.000853	0.00104	0.00125	0.00152
in isopropyl acetate	0.000583	0.000717	0.000861	0.00107	0.00129	0.00155	0.00185	0.00226	0.00259
in methanol	0.000854	0.0011	0.00131	0.00151	0.00176	0.00203	0.00237	0.00278	0.00332
in methyl acetate	0.000372	0.000482	0.000615	0.000811	0.00105	0.00127	0.00158	0.00186	0.0023
in n-butanol	0.000802	0.000993	0.00124	0.00141	0.00164	0.00192	0.00227	0.00263	0.00317
in n-propanol	0.000712	0.000936	0.00118	0.00135	0.00152	0.00179	0.00211	0.00252	0.00298
in n-propyl acetate	0.000822	0.000952	0.00111	0.00136	0.00154	0.0018	0.0021	0.00243	0.00289
in sec-butanol	0.000398	0.000554	0.000662	0.000824	0.00106	0.0013	0.00164	0.00198	0.00227
